Reference: US8093231B2, “Sulfonylethyl phosphorodiamidates” (Telik, Inc., priority 2004, dated 2012)
Like-named read-outs stand apart in the source and are kept apart here.

Tests used:
Type in all cases: cell-based, human
[1] = test system: DLD-1 (colorectal adenocarcinoma); assay: Cytotoxicity/growth inhibition assay, DLD-1; conditions: read-out: IC50 (DLD-1)
Source text: (§1) The human cancer cell lines DLD-1 (colorectal adenocarcinoma), LNCap (prostate carcinoma), and OVCAR-3 (ovarian carcinoma) were obtained from the American Type Culture Collection, Manassas, Va., U.S.A., and HL-60 (promyeloid myelocytic leukemia), MX-1 (breast carcinoma), P388, and P388ADR from the National Cancer Institute, Bethesda, Md., U.S.A. Carboplatin, doxorubicin, and melphalan were obtained from Sigma-Aldrich Chemical Company, St. Louis, Mo., U.S.A. The CellTiter-Glo assay kit was obtained from Promega Corporation, Madison, Wis., U.S.A., and the Cellular DNA Cytometric Analysis Reagent Kit from Roche Diagnostics Corporation, Indianapolis, Ind., U.S.A. Lambda DNA was obtained from New England Biolabs, Beverly, Mass., U.S.A., and SYBR-Gold from Molecular Probes, Inc., Eugene, Oreg., U.S.A. The DNeasy Tissue Kit was obtained from Qiagen Inc., Valencia, Calif., U.S.A., and AmpliTaq Gold DNA polymerase and PCR reagents from Applied Biosystems, Foster City, Calif., U.S.A. All products were used in accordance with manufacturer's directions. All assays were conducted in triplicate wells, with dimethyl sulfoxide (DMSO) solvent control. The extent of cell growth was expressed as a percentage of the signal from the solvent control wells.
(§2) Log-phase cells were trypsinized, collected by centrifugation, and resuspended in a small volume of fresh medium, and the density of viable cells was determined following Trypan Blue staining. Cells were diluted in fresh media (3×10^3 cells/mL for MX-1, 3×10^3 cells/mL for DLD-1, and 6×10^3 cells/mL for LNCap cells), the test compounds (concentrations between 0.1 and 200 μM, dissolved in DMSO, 50 μL) added immediately after dilution to achieve a final DMSO concentration of 0.5%, then the suspensions added at 150 μL/well to 96-well plates, and incubated for several hours to allow attachment in the case of adherent cells. The cells were cultured for approximately three doubling times (3 days for MX-1 and 4 days for DLD-1 and LNCap). The cells were then collected by centrifugation, and 100 μL of the culture supernatant was replaced by the CellTiter-Glo reagent. After incubation for 15 minutes at room temperature, and the plate was read with a luminometer.

[2] = test system: LNCap (prostate carcinoma); assay: Cytotoxicity/growth inhibition assay, LNCap; conditions: read-out: IC50 (LNCap)
Source text: as §1, §2

[3] = test system: MX-1 (breast carcinoma); assay: Cytotoxicity/growth inhibition assay, MX-1; conditions: read-out: IC50 (MX-1)
Source text: as §1, §2

[4] = DLD-1 cells, 4 days culture, CellTiter-Glo, 0.1-200 μM tested
[5] = LNCap cells, 4 days culture, CellTiter-Glo, 0.1-200 μM tested
[6] = MX-1 cells, 3 days culture, CellTiter-Glo, 0.1-200 μM tested

SMILES	IC50 [1, 4] [µM]	IC50 [2, 5] [µM]	IC50 [3, 6] [µM]	IC50 ([1]; Homo sapiens, DLD-1, 96 h) [µM]	IC50 ([2]; Homo sapiens, LNCaP, 96 h) [µM]	IC50 ([3]; Homo sapiens, MX1, 72 h) [µM]
NC(=O)[C@@H](N)CS(=O)(=O)CCOP(=O)(N(CCCl)CCCl)N(CCCl)CCCl [Compound 78A]	6.3	≥ 200	18.8			
O=[N+]([O-])c1cccc(CS(=O)(=O)CCOP(=O)(N(CCCl)CCCl)N(CCCl)CCCl)c1 [Compound 138A]	1.8	12	16.8			
O=P(OCCS(=O)(=O)CCCCS(=O)(=O)CCOP(=O)(N(CCCl)CCCl)N(CCCl)CCCl)(N(CCCl)CCCl)N(CCCl)CCCl [Compound 4B]	2.9	11.5	4.1			
O=C(NCc1ccccc1)[C@H](CS(=O)(=O)CCOP(=O)(N(CCCl)CCCl)N(CCCl)CCCl)NS(=O)(=O)c1ccccc1 [Compound 91A]	4.8	33.3	10.7			
CS(=O)(=O)N[C@@H](CS(=O)(=O)CCOP(=O)(N(CCCl)CCCl)N(CCCl)CCCl)C(=O)O [Compound 104A]	20	≥ 200	25.3			
O=P(OCCS(=O)(=O)c1cccc2c(S(=O)(=O)CCOP(=O)(N(CCCl)CCCl)N(CCCl)CCCl)cccc12)(N(CCCl)CCCl)N(CCCl)CCCl [Compound 23B, 1,5-di[[2-[[bis[bis(2-chloroethyl)amino]phosphinyl]oxy]ethyl]sulfonyl]naphthalene]				0.7	3.8	1.1
O=C(c1ccc(CS(=O)(=O)CCOP(=O)(N(CCCl)CCCl)N(CCCl)CCCl)cc1)N1CCCC1 [Compound 156A]	3.5	31.4	4.8			
CC(=O)N[C@@H](CS(=O)(=O)CCOP(=O)(N(CCCl)CCCl)N(CCCl)CCCl)C(=O)O [Compound 73A]	18	73.2	29.6			
O=C(NCc1cccnc1)c1ccc(CS(=O)(=O)CCOP(=O)(N(CCCl)CCCl)N(CCCl)CCCl)cc1 [Compound 174A]	14.3	55.8	18.8			
Cc1c(O)c(CO)c(CS(=O)(=O)CCOP(=O)(N(CCCl)CCCl)N(CCCl)CCCl)c[n+]1[O-] [Compound 184A]	5.3	94.8	28.9			
NCC(=O)Nc1cccc(CS(=O)(=O)CCOP(=O)(N(CCCl)CCCl)N(CCCl)CCCl)c1 [Compound 143A]	10.9	110	15.9			
CC(C)(C)c1ccc(S(=O)(=O)CCOP(=O)(N(CCCl)CCCl)N(CCCl)CCCl)cc1 [Compound 114A]	1.9	8.2	4.7			
O=P(OCCS(=O)(=O)c1ccc(S(=O)(=O)CCOP(=O)(N(CCCl)CCCl)N(CCCl)CCCl)cc1)(N(CCCl)CCCl)N(CCCl)CCCl [Compound 12B]	1.9	7.1	4.3			
O=C(c1ccc(CS(=O)(=O)CCOP(=O)(N(CCCl)CCCl)N(CCCl)CCCl)cc1)N1CCN(Cc2ccccc2)CC1 [Compound 177A]	4.5	21.1	8.8			
CS(=O)(=O)N[C@@H](CS(=O)(=O)CCOP(=O)(N(CCCl)CCCl)N(CCCl)CCCl)C(=O)N1CCN(C(=O)c2ccco2)CC1 [Compound 98A]	9.9	144	27.9			
CN(C)C(=O)c1ccc(CS(=O)(=O)CCOP(=O)(N(CCCl)CCCl)N(CCCl)CCCl)cc1 [Compound 155A]	10.7	42.4	2.6			
O=P(OCCS(=O)(=O)CCCS(=O)(=O)CCOP(=O)(N(CCCl)CCCl)N(CCCl)CCCl)(N(CCCl)CCCl)N(CCCl)CCCl [Compound 3B]	4.3	14.8	7.4			
O=C(CS(=O)(=O)CCOP(=O)(N(CCCl)CCCl)N(CCCl)CCCl)N1CCN(Cc2ccccc2)CC1 [Compound 19A]	8.1	17.8	14.8			
O=C(c1ccc(CS(=O)(=O)CCOP(=O)(N(CCCl)CCCl)N(CCCl)CCCl)cc1)N1CCC(O)C1 (stereo not drawn) [Compound 165A]	8	114	21.9			
CCC(C)CS(=O)(=O)CCOP(=O)(N(CCCl)CCCl)N(CCCl)CCCl (stereo not drawn) [Compound 8A]	7	40.9	17.5			

SMILES	IC50 [1, 4] [µM]	IC50 [2, 5] [µM]	IC50 [3, 6] [µM]	IC50 ([1]; Homo sapiens, DLD-1, 96 h) [µM]	IC50 ([2]; Homo sapiens, LNCaP, 96 h) [µM]	IC50 ([3]; Homo sapiens, MX1, 72 h) [µM]
CC(C)(C)OC(=O)NCC(=O)Nc1cccc(CS(=O)(=O)CCOP(=O)(N(CCCl)CCCl)N(CCCl)CCCl)c1 [Compound 144A]	4	17.9	5.7			
O=P(OCCS(=O)(=O)Cc1ccco1)(N(CCCl)CCCl)N(CCCl)CCCl [Compound 179A]	7.6	25.6	7.2			
O=C(O)CCC(=O)Nc1cccc(CS(=O)(=O)CCOP(=O)(N(CCCl)CCCl)N(CCCl)CCCl)c1 [Compound 142A]	18.1	114	22.5			
O=P(OCCS(=O)(=O)C1CCCC1)(N(CCCl)CCCl)N(CCCl)CCCl [Compound 10A]	7.7	43	14.4			
O=P(OCCS(=O)(=O)c1ccncc1)(N(CCCl)CCCl)N(CCCl)CCCl [Compound 120A]	3.6	12.2	7.1			
O=P(OCCS(=O)(=O)Cc1ccc(CS(=O)(=O)CCOP(=O)(N(CCCl)CCCl)N(CCCl)CCCl)cc1)(N(CCCl)CCCl)N(CCCl)CCCl [Compound 15B]	2.4	4.4	1.4			
O=C(O)c1ncccc1S(=O)(=O)CCOP(=O)(N(CCCl)CCCl)N(CCCl)CCCl [Compound 126A]	6.7	126	20.3			
O=C(O)c1ccccc1S(=O)(=O)CCOP(=O)(N(CCCl)CCCl)N(CCCl)CCCl [Compound 118A]	10.9	≥ 200	37.2			
O=P(OCCS(=O)(=O)c1cccc(S(=O)(=O)CCOP(=O)(N(CCCl)CCCl)N(CCCl)CCCl)c1)(N(CCCl)CCCl)N(CCCl)CCCl [Compound 11B]	2.1	4.5	3			
O=P(OCCS(=O)(=O)c1nc2ccccc2s1)(N(CCCl)CCCl)N(CCCl)CCCl [Compound 121A]	1.2	8.5	2.6			
CC(C)NC(=O)[C@H](CS(=O)(=O)CCOP(=O)(N(CCCl)CCCl)N(CCCl)CCCl)NS(=O)(=O)c1ccc(C#N)cc1 [Compound 101A]	7.2	57	14.8			
O=P(OCCS(=O)(=O)c1ncc2nc[nH]c2n1)(N(CCCl)CCCl)N(CCCl)CCCl [Compound 127A]	5.8	≥ 200	15.2			
O=P(OCCS(=O)(=O)c1ccc(-c2ccccc2)cc1)(N(CCCl)CCCl)N(CCCl)CCCl [Compound 113A]	2.2	18.4	10.9			
O=C(O)c1cccc(S(=O)(=O)CCOP(=O)(N(CCCl)CCCl)N(CCCl)CCCl)c1 [Compound 119A]	9.8	189	32.5			
O=C(c1ccc(CS(=O)(=O)CCOP(=O)(N(CCCl)CCCl)N(CCCl)CCCl)cc1)N1CCCCC1 [Compound 159A]	3.5	24.4	5.3			
CC(C)(C)OC(=O)NCCCC[C@H](NC(=O)CS(=O)(=O)CCOP(=O)(N(CCCl)CCCl)N(CCCl)CCCl)C(=O)OC(C)(C)C [Compound 27A]	3.6	15.5	6.2			
O=C(c1ccc(CS(=O)(=O)CCOP(=O)(N(CCCl)CCCl)N(CCCl)CCCl)cc1)N1CCN(c2ccccn2)CC1 [Compound 176A]	4.9	29	6.4			
O=C(O)[C@H](CS(=O)(=O)CCOP(=O)(N(CCCl)CCCl)N(CCCl)CCCl)NS(=O)(=O)c1ccc(Cl)cc1 [Compound 105A]	23.1	≥ 200	31.6			
O=P(OCCS(=O)(=O)CCS(=O)(=O)CCOP(=O)(N(CCCl)CCCl)N(CCCl)CCCl)(N(CCCl)CCCl)N(CCCl)CCCl [Compound 1B]	2.5	5.1	4			
Cc1ccc(CS(=O)(=O)CCOP(=O)(N(CCCl)CCCl)N(CCCl)CCCl)cc1 [Compound 130A]	5.1	22	6.5			
